Where two headings read alike, the source gives them in different places.
Tests used:
[1] = system: HIV-1 infection of TZM-bl cells; assay: HIV-1 infectivity enhancement assay, β-galactosidase luminescence; type: cell-based; settings: for Rel-EFC / Log10 Infection Rel EFC: 1.3 µM peptide; for Rel-EFC: infection relative to EF-C (QCKIKQIINMWQ = 1); for Log10 Infection Rel EFC: log10 of infection relative to EF-C; for Log Infectivity: Log10 infection relative to EF-C, asymmetric std dev errors; for Log10 Infection Rel EF-C: HIV-1 infection of TZM-bl cells; for Log10 of Rel to EFC (Feb2021): Log10 of infection relative to EF-C
[2] = β-sheet content by ATR-FT-IR; type: physicochemical; settings: for b -sheet / %: Fig. S7 panel A, β-sheet content by ATR-FT-IR
Procedure, shortened: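 Spectra: 64 scans, 2 cm^-1, lyophilized PNF (1 mg/mL source). CR = 100 − 100 × filtrate/original fluorescamine signal; triplicate, ± SD.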

[3] = Zeta-potential measurement; type: physicochemical
Procedure, shortened: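 Samples: 1 mg/mL in PBS pH 7.4 (from DMSO), 1 d at RT, then diluted in 1 mM KCl immediately before measurement. Triplicates, two independent runs averaged.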

[4] = Turbidity, derived count rate of scattered light; type: physicochemical; settings: for Count Rate / kcps: derived count rate of scattered light at 633 nm, 173°, from zeta-potential measurement, 0.1 mg/mL in 1 mM KCl after 1 d at 1 mg/mL in PBS, turbidity / microscopic aggregation, mean of triplicate
Procedure, shortened: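 One-day room-temperature aggregation at 1 mg/mL in PBS (pH 7.4) preceded measurement; samples then went into 1 mM KCl. Triplicates per sample, two independent experiments averaged.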

[5] = Turbidity, derived count rate of scattered light; type: physicochemical; settings: for Count Rate: derived count rate of scattered light (turbidity); for Log10 Count Rate: turbidity, derived count rate of scattered light, data of Figure 2D
[6] = Fig. S7 panel A (plotted against β-sheet content), TZM-bl cells
[7] = Log10 of infection rate relative to EF-C, Figure 3A source data
[8] = infection rate relative to EF-C, log10, data of Figure 2D
[9] = infection rate relative to EF-C, log10, source data of Figure 2C
[10] = zeta potential of peptide assemblies
[11] = zeta-potential of peptide, source data of Figure 2C
[12] = zeta-potential of the peptide assemblies, mean, Figure 3A source data
[13] = Log10 of derived count rate of scattered light (turbidity)
[14] = log10 of derived count rate of scattered light (turbidity)
[15] = turbidity, Log10 of derived count rate of scattered light, Figure 3A source data
[16] = Fig. S7 panel B (plotted against CR), rounded to two decimals, TZM-bl cells

| Substance | Rel-EFC [1] | Log10 Infection Rel EFC [1] | Log Infectivity [1, 6] | Log10 Infection Rel EF-C [1, 7] | Log10 Infection Rel EF-C [1, 8] | Log10 Infection Rel EF-C [1, 9] | b -sheet / % [2] | Zeta-Pot. [3, 10] | Zeta-Potential / mV [3, 11] | Zeta-Potential / mV [3, 12] | Log10 Count Rate [4, 13] | Count Rate / kcps [4] | Log10 Count Rate [4, 14] | Log10 Count Rate [4, 15] | Count Rate [5] | Log10 Count Rate [5] | Log Infectivity [1, 16] | Log10 of Rel to EFC (Feb2021) ([1]; all peptides of FigS16) | other results |
| --- | --- | --- | --- | --- | --- | --- | --- | --- | --- | --- | --- | --- | --- | --- | --- | --- | --- | --- | --- |
| KIKIQIRGD | 0,02 | -1,68 | -1.678 | -1.68 | -1.678 | -1.678 | 47.12% | 6.43 | 4.47 mV | 6.43 mV | 2.057 | 114 kcps | 2.057 | 2.057 | 114 | 2.057 | – | – | – |
| RGDSGGGGGGKIKIQIC | 0,87 | -0,06 | -0.0628 | -0.06 | -0.0628 | -0.0628 | 40.62% | 16.7 | 16.7 mV | 16.7 mV | 4.018 | 10416 kcps | 4.018 | 4.018 | 10416.16667 | 4.018 | -0.06 | -0.06 | Log10 Count Rate ([4]; logarithm of count rate in kcps): 4.018 |
| KIKIQIII | 0,35 | -0,45 | -0.4521 | -0.45 | -0.4521 | -0.4521 | 45.8425% | 19.8 | 19.13 mV | 19.8 mV | 1.978 | 95 kcps | 1.978 | 1.978 | 94.97 | 1.978 | -0.45 | -0.45 | – |
| KAKAKAQA | 0,01 | -2,06 | -2.06 | -2.06 | -2.06 | -2.06 | 39.62% | -9.01 | -5.297 mV | -9.01 mV | 1.886 | 77 kcps | 1.886 | 1.886 | 76.93 | 1.886 | – | – | – |
| KFKFQFW | 0,16 | -0,79 | -0.7899 | -0.79 | -0.7899 | -0.7899 | 35.45% | – | 8.995 mV | 6.49 mV | 2.086 | 122 kcps | 2.086 | 2.086 | 121.9 | 2.086 | – | -0.79 | Abs. Inf. ([1]; absolute HIV-1 infection signal, TZM-bl cells, β-galactosidase luminescence): 4953; Zeta-Pot. [3]: 6.49 |
| KIKIKIKIWW | 0,37 | -0,43 | -0.4266 | -0.43 | -0.4266 | -0.4266 | 48.82% | 15.4 | 15.83 mV | 15.4 mV | 3.975 | 9436 kcps | 3.975 | 3.975 | 9436 | 3.975 | -0.43 | -0.43 | Log10 of Rel to EFC (Feb2021) ([1]; second listing, peptides with TEM 2cat 0): -0.43; beta sheet ([2]; peptides with TEM 2cat 0): 49; Zeta Count Rate ([4]; peptides with TEM 2cat 0): 9436 kcp |

Source: publication PMC10447463, “Data-mining unveils structure–property–activity correlation of viral infectivity enhancing self-assembling peptides” (Nature Communications, 2023)
